This is an account of results in patent US20260049077A1, “Neurotrophic Receptor Tyrosine Kinase (NTRK) Inhibitors and Methods Using Same” (Baylor College of Medicine, priority 2022, published 2026).

Where “and” joins values, the source holds several entries; their conditions need not be identical. Equal values may be shown once. Entries after “also recorded” stand apart in the source; their conditions may differ. Read-outs that look alike come from different tables or passages of the source.

The target of data set [1] is T1, NTRK2 (Homo sapiens (Human), UniProt Q16620). Briefly: NTRK2 apparent inhibition constant (Ki app).
The target in data set [2] is T1, NTRK2. Briefly: Promega NTRK2 NanoBRET live-cell target engagement. In kind it is cell-based. The note with it: live cells. The source says: FIGS. 6A-6B show the live-cell engagement (FIG. 6A) concept and an NTRK2 example (FIG. 6B). FIG. 6A: Depiction of Promega's NanoBRET target engagement system as per their website. The system involves cell-based competitive displacement of a fluorescent NanoBRET tracer bound reversibly to a NanoLuc fusion protein. Test compounds displace the tracer dependent on their affinity for the target and […] the NanoBRET signal. FIG. 6B: Example of the use of Promega's NTRK2 NanoBRET cell-based system. Each NTRK2 compound (Cpd) was assayed in kinase assays and in cells. Multiple NTRK2 compounds enter the cell and are potent nanomolar inhibitors in these assays (% normalized to no Cpd).
As described elsewhere herein, hit compounds, including but not limited to CDD-2262, and its smaller analog, CDD-2330, were synthesized off-DNA and evaluated for NTRK2 activity.

The conditions of data set [3]: human, microsomes.
For data set [4] the following is noted: mouse, microsomes.
In data set [5] the target is T1, NTRK2. Briefly: NTRK2 inhibition (IC50). It is filed as biochemical.
The nature of data set [6]: Metabolic stability in mouse liver microsomes (MLM). On the technique in general: Microsomes from liver hold many membrane-bound enzymes, among them those of drug oxidation.
The subject of data set [7] is PTGS2 mRNA in endometriotic stromal cells. Briefly: PGE2-stimulated PTGS2 gene expression in endometriotic stromal cells (RT-PCR). It is filed as cell-based. As to conditions: 1 μM PGE2, 6-hour period. From the text: FIG. 12A: estrogen, secreted by the ovary and endometriotic lesions, signals to macrophages and nerve fibers, including production of BDNF/NT-3 and pro-inflammatory cytokines, respectively. […] Activated CREB acts on the PTGS2 promoter, creating a positive feedback mechanism that results in elevated inflammation. PGE2 signaling also stimulates PKA/PKC signaling to induce the production of BDNF and NTF3 expression. […] Gene expression of PTGS2 was quantified using quantitative real time PCR (RT-PCR).
Thus, the present disclosure provides evidence that administration of CDD-2330 results in suppression of markers associated with inflammation, and accordingly, is suitable for the treatment of endometriosis.

Data set [8] can be described thus: Metabolic stability in mouse and human liver microsomes. It is filed as in vitro ADME. The note with it: mouse and human liver microsomes in vitro.
The nature of data set [9]: Metabolic stability in human liver microsomes (HLM).
In data set [10] the test system is human kinome. Description: KINOMEscan kinome-wide binding profiling. As to conditions: 1 μM. The source says: (§1) FIG. 7B: Using the ThermoFisher Z'-LYTE™ screening assay, kinase specificity for the NTRK subfamily was observed.
(§2) To broadly assess the kinome-wide selectivity of CDD-2330, a KINOMEscan profiling platform was employed (FIG. 7A).

The nature of data set [11]: Pharmacokinetics of orally administered CDD-2330 in mice. It is filed as in vivo, mouse. As to conditions: oral 50 mg/kg. On the procedure:
CDD-2330 was dissolved in 10% DMSO+0.5% methyl cellulose at 5 mg/mL. CDD-2330 was orally delivered at 50 mg/kg to mice (n=4). Blood samples were collected at 0, 0.25, 0.5, 1, 2, 4, 6, 8, and 24 h. Samples were analyzed by LC-MS, and the concentration of CDD-2330 was quantified with a standard curve (range: 0-10 μM). CDD-3031 was administered by oral gavage at a dose of 50 mg/kg. Blood samples were collected at […], 0.167, 0.25, 0.5, 1, 2, 4, 6, 8, and 24 h.

Data set [12] is described as follows: Plasma ALT and AST in mice after a high dose (50 mg/kg). In kind it is in vivo, mouse.
The target in data set [13] is NTRKs. Briefly: ThermoFisher Z'-LYTE kinase assay, NTRKs. In kind it is biochemical. As to conditions: Z'-LYTE dose response; range over NTRKs.
Excerpt: as §1, §2

For data set [14], the target named is MAP3K19 (Homo sapiens (Human), UniProt Q56UN5). Description: ThermoFisher Z'-LYTE kinase assay, MAP3K19. It is filed as biochemical.
Data set [15] concerns the target NTRK1 (Homo sapiens (Human), UniProt P04629). Description: NTRK1 inhibition (IC50). As to conditions: read-out: NTRK1 IC50.
A short description of data set [16]: Mouse brain and testis distribution. In kind it is in vivo. As to conditions: ip, mice, intraperitoneal. On the procedure: FIGS. 9A-9B show mouse brain (FIG. 9A) and testis (FIG. 9B) distribution of CDD-2330. Mice (n=3 per timepoint) were treated intraperitoneally with CDD-2330 and brain, testis, and blood samples were collected. Samples were processed and analyzed by LC-MS.

Data set [17] addresses NTRK3 (Homo sapiens (Human), UniProt Q16288). Briefly: NTRK3 inhibition (IC50). As to conditions: read-out: NTRK3 IC50.
For data set [18] the following is noted: in vivo; cited from earlier work.
Data set [19] relates to FLT3-ITD. As to conditions: cited from earlier work.
For data set [20] the following is noted: at 4 h; cited from earlier work.
Where [21] appears, read: plasma, 48 h after oral 50 mg/kg CDD-2330, individual mice.

T1 sequence (Q16620 32-822): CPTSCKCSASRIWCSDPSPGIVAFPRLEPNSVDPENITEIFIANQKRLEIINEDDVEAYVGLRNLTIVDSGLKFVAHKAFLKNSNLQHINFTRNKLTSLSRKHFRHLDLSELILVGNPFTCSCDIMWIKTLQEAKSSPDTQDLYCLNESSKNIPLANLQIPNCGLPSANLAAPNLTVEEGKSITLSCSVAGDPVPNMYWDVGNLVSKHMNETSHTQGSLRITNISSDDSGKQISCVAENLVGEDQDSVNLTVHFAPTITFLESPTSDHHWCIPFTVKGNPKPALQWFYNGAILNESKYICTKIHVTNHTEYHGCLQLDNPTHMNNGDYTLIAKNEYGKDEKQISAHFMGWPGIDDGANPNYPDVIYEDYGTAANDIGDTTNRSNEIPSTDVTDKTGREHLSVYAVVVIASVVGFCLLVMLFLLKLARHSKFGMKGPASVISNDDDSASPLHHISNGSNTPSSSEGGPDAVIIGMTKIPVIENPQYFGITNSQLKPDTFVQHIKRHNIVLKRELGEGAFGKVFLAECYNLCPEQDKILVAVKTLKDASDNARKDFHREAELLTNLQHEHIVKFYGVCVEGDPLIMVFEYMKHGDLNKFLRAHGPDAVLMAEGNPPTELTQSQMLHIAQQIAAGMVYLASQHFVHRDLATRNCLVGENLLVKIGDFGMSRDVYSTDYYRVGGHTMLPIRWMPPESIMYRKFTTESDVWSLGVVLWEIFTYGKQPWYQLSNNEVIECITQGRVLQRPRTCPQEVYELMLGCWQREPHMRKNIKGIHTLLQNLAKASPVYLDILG
Sequence of MAP3K19 (Q56UN5 whole entry): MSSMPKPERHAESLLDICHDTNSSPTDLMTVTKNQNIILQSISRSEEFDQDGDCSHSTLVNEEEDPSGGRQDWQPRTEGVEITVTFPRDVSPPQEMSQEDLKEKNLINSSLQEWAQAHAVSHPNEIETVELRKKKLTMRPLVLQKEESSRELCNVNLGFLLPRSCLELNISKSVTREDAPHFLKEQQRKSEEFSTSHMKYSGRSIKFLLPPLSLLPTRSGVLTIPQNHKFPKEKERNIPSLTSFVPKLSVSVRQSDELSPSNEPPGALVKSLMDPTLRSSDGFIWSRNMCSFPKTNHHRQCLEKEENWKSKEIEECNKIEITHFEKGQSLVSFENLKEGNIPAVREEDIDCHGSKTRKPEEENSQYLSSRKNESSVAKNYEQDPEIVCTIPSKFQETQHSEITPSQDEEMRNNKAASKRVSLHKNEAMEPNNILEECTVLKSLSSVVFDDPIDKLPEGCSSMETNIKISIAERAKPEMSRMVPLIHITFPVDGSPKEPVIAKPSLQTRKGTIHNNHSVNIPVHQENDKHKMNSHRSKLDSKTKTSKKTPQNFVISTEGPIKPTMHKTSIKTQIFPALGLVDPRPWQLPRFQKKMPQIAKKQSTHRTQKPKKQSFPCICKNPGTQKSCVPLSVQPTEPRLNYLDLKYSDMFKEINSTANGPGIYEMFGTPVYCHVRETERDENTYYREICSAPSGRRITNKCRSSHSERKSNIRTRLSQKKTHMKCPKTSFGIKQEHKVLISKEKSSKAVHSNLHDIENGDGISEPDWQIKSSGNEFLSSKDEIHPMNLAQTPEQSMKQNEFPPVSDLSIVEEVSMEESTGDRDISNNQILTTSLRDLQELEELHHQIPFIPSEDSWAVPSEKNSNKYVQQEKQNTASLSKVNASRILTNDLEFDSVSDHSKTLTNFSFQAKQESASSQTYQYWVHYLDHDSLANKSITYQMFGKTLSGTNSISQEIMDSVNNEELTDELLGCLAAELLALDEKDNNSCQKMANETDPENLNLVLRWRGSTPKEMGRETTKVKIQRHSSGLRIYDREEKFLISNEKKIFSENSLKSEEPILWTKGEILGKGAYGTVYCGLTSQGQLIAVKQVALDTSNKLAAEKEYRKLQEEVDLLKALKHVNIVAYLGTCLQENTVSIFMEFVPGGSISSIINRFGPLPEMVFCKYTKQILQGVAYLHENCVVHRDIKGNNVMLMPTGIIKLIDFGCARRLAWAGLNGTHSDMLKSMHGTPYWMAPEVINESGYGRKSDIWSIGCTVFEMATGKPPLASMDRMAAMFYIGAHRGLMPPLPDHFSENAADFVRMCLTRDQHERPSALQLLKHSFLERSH
Sequence of NTRK1 (P04629 33-796): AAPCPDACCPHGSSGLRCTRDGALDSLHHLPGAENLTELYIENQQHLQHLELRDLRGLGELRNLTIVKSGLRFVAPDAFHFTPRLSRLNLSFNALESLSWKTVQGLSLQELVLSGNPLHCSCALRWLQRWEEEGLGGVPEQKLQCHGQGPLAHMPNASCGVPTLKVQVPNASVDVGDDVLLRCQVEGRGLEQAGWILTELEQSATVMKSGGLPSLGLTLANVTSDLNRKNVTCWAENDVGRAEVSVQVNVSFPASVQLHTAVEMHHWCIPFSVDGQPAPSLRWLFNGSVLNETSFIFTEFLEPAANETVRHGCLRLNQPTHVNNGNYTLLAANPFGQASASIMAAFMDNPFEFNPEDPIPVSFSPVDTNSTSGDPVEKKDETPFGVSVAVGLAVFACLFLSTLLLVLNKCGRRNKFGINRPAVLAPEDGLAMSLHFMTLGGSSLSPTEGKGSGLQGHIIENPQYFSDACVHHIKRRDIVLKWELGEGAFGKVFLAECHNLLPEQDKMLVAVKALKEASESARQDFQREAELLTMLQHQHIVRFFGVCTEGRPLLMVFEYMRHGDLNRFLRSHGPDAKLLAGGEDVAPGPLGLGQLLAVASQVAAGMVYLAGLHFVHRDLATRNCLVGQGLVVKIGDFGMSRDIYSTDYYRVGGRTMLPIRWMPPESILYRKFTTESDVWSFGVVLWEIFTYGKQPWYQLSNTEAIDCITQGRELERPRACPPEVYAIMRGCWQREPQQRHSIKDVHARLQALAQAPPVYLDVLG
Sequence of NTRK3 (Q16288 32-839): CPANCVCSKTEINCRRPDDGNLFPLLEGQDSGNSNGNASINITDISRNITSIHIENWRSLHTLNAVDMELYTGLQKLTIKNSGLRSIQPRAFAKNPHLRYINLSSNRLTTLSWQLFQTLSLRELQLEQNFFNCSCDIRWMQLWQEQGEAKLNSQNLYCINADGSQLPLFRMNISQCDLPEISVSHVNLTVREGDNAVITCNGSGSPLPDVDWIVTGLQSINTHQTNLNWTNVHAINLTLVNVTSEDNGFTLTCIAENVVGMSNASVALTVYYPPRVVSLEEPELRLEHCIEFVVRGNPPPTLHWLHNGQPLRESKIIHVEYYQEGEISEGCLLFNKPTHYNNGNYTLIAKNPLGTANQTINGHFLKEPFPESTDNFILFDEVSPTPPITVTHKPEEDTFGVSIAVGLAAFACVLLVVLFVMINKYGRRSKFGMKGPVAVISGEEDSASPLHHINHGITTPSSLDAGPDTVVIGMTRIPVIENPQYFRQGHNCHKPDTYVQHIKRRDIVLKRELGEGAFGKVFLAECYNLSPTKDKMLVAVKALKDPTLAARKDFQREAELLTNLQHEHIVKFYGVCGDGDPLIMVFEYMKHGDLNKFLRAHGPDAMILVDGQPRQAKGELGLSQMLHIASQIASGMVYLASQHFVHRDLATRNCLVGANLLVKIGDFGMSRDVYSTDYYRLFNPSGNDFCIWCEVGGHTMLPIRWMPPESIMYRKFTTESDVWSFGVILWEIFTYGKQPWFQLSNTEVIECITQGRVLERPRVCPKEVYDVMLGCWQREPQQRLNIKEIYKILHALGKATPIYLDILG

For “1-cyclobutyl-1-(pyrazolo[1,5-a]pyridin-5-ylmethyl)-3-(4-(trifluoromethoxy)phenyl)urea [CDD-2219]”, in data set [1] (read-out: NTRK2 Ki^app, apparent inhibition constant), the Ki turned out to be 0.021 ± 0.007 µM. For the same compound, in [2], the “cell penetration and effect in NanoBRET assays” value (from here on “cell penetration and effect”) is recorded as “able to penetrate cell membranes to induce an effect”. In addition, the “HLM t1/2” value in [3] came out at 0.913 h. Also, in [4], the “MLM t1/2” value came to 0.47 h. Also, the IC50 – broadly, the concentration that gives 50% inhibition – in data set [5] came to 0.013 µM.
On to `CCOc1ccc(CC(=O)N(Cc2ccn3nccc3c2)[C@H](C)c2ccccc2)cc1` [CDD-2222, (R)-2-(4-ethoxyphenyl)-N-(1-phenylethyl)-N-(pyrazolo[1,5-a]pyridin-5-ylmethyl)acetamide], for which the Ki in [1] turned out to be 0.034 ± 0.01 µM. In data set [5], this compound gave an IC50 of 0.043 µM.
On to `O=C(O)c1cnn2ccc(CN(C(=O)Nc3ccc(OC(F)(F)F)cc3)C3CCC3)cc12` [CDD-2262, 5-((1-cyclobutyl-3-(4-(trifluoromethoxy)phenyl)ureido)methyl)pyrazolo[1,5-a]pyridine-3-carboxylic acid], for which, in data set [1], the Ki came out at 0.017 ± 0.01 µM. For the same compound, the half-life – broadly, how long it takes for the measured level to halve – was 8.87 h in [6], greater than 7 h in data set [8] and 7.37 h in [9]. Further, in data set [2], the “cell penetration and effect” value is recorded as “able to penetrate cell membranes to induce an effect”. The “concentration at which PTGS2 mRNA is statistically suppressed” value in [7] was greater than 100 nM. In data set [5], this compound returned an IC50 of 0.032 µM.
Regarding `CC(C)N(Cc1ccn2ncc(C(=O)O)c2c1)C(=O)Nc1ccc(OC(F)(F)F)cc1` [CDD-2330, 5-((1-isopropyl-3-(4-(trifluoromethoxy)phenyl)ureido)methyl)pyrazolo[1,5-a]pyridine-3-carboxylic acid], the “kinome-wide selectivity (KINOMEscan)” value in data set [10] was “highly specific for NTRK1, NTRK2, and NTRK3; also recorded: high specificity for NTRKs, with MAP3K19 as the only possible off-target”. For the same compound, in data set [11], the “blood level after oral administration” value is “rapid disappearance in the blood”. Besides, in data set [12] (high dose, 50 mg/kg), the “potential liver and other tissue toxicity” value was “minimal effects”. Besides, in data set [12] (setting [21]), the ALT is 13.97 U/L and 26.17 U/L and 13.44 U/L and 18.74 U/L. In data set [12] (setting [21]), the AST was 19.45 U/L and 18.92 U/L and 26.17 U/L and 13.26 U/L. The IC50 in data set [13] was 0.0012 to 0.0038 µM; in data set [14] (Z'-LYTE dose response) it was 0.401 µM; in [15], 0.0038 µM; in [5], 0.0035 µM; in data set [17] it was 0.0012 µM. Further, the half-life in data set [6] is 27.2 h; in data set [8], greater than 25 h; in [9], 25.6 h. The “selectivity over MAP3K19” value in data set [14] (NTRKs vs MAP3K19, Z'-LYTE) is recorded as greater than 100 fold. For the same compound, the “cell penetration and effect” value in [2] was “able to penetrate cell membranes to induce an effect”. For the same compound, the Kp at 4 h was found to be 0.31 in data set [16] (brain, read-out: Brain:Plasma) and 0.31 in data set [16] (testis, read-out: Testis:Plasma).
For the compound `CN1CCN(c2ccc(C(=O)Nc3n[nH]c4ccc(Cc5cc(F)cc(F)c5)cc34)c(NC3CCOCC3)c2)CC1` [Entrectinib, N-(5-(3,5-difluorobenzyl)-1H-indazol-3-yl)-4-(4-methylpiperazin-1-yl)-2-((tetrahydro-2H-pyran-4-yl)amino)benzamide], the blood-brain barrier crossing result in data set [18] is given as “cross the blood-brain barrier”.
As to `FC(F)(F)c1ccc(CNc2ccc(Cc3c[nH]c4ncc(Cl)cc34)cn2)cn1` [Pexidartinib], the IC50 in data set [19] is 0.009 µM.
As for `CNCC[C@@H](Oc1ccccc1C)c1ccccc1` [atomoxetine], the “Brain:Plasma (comparator antidepressant drug)” value in data set [20] is on record as 20.
Regarding `O=C(Nc1cnn2ccc(N3CCC[C@@H]3c3cc(F)ccc3F)nc12)N1CC[C@H](O)C1` [larotrectinib], the blood-brain barrier crossing result in [18] is “cross the blood-brain barrier”.
